Where two headings read alike, the source gives them in different places.
Assays:
Calmodulin (CaM) [1] = biological target: T1, Calmodulin (CaM) (Homo sapiens, UniProt P0DP23); settings: literature; read-out: published Kd values, calmodulin-calcium ion interaction; cited from earlier work
T1 construct: purchased Sigma, St. Louis, Mo

Calmodulin (CaM) [2] = biological target: T1, Calmodulin (CaM); assay: BSI free-solution CaM-Ca^2+ interaction; format: binding; settings: for Kd: 5 μM CaM, pH 7.5, 25° C.
Procedure: Homogeneous, label-free CaM-Ca^2+ interactions are quantified with BSI by real-time monitoring the sequential reactions of a constant concentration of 5 μM CaM with Ca^2+ solutions increasing in concentrations from 12.5-100 μM (FIG. 24A). Here CaM was buffered at pH=7.5 with 0.1M HEPES and 0.1M KCl, with its concentration held constant at 5 μM. In this aspect, the CaM solution contained a small amount of EGTA to chelate any free Ca^2+. The reactions were carried out in the same microfluidic chip molded in PDMS with the temperature fixed at 25° C. A 5 μM CaM solution and a 100 μM Ca^2+ solution both consisting of excess EGTA (i.e., 400 μM), served as the control.
Kinetic analysis using a single exponential gives rise to a plot of observed rates versus Ca^2+ concentration that is linear. A least squares analysis of the linear plot yields the slope, intercept, and their respective errors. […] Without wishing to be bound by theory, it is believed that the disparity in these two values was due likely to a less than optimal approach to fitting the kinetic data and the RI background present from unreacted ligand, particularly at high concentrations.
These experiments were conducted at 25±0.01° C. maintained by a thermoelectric temperature controller (MELCOR, Trenton, N.J.) coupled to a Peltier device. Binding experiments were monitored in real-time at frequencies ca. 50-100 Hz.
CaM was buffered at a pH=7.5 with 0.1M HEPES and 0.1M KCl with its concentration held constant throughout the experiment at 5 μM. The CaM solution contained a small amount of EGTA to chelate any free Ca^2+. BSI monitored, in real-time, the sequential reactions of 5 μM CaM with concentrations of Ca^2+ ranging from 12.5-100 μM.

control: change in signal above that observed in the absence of excess EGTA at equivalent concentrations (Calmodulin (CaM) [2]; 5 μM CaM and 100 μM Ca^2+, both with excess EGTA (400 μM)): < 3%
Kd (Calmodulin (CaM) [2]; 12.5-100 μM Ca^2+, read-out: Kd CaM-Ca^2+, kinetic analysis (observed rates versus Ca^2+ concentration)): 3.36 µM
Kd (Calmodulin (CaM) [2]; read-out: Kd CaM-Ca^2+, steady-state values analysed by Prism): 17.8 µM
Structure (SMILES): [Ca+2] [Ca^2+]
Kd (Calmodulin (CaM) [1]): 1 to 10 µM
